The target of data set [1] is T1, 7SK/P-TEFb interaction (Homo sapiens, UniProt P50750).
T1 construct: expressed in transfected cells; host or cells: F1C2 cell line (HeLa stably transfected with pBabe-puro-CDK9-Flag)
Kind of data set: Direct incubation with nuclear extract, 7SK/P-TEFb interaction. The data set is classed as binding.

For data set [2], the system named is HIV-1 transcription. The settings on record: HeLa cells, low levels of drug; cited from earlier work.
Data set [3] relates to 7SK/P-TEFb interaction. In words: 7SK/P-TEFb interaction in nuclear extracts of treated F1C2 cells. The data set is classed as cell-based, human. The conditions noted are these: nuclear extract. The source says: Certain agents that elicit SOS-like stress responses in mammalian cells can markedly enhance HIV-1 transcription in a manner analogous to prophage induction in Escherichia coli (6–8,20,21). […] In light of these observations, we investigated the effect of ultraviolet irradiation and actinomycin D on the 7SK/P-TEFb interaction in nuclear extracts of the treated F1C2 cells. […] Neither the level of total 7SK in the nuclear extract nor the CDK9/cyclin T1 interaction was affected. […] As for ultraviolet irradiation, 7SK was dissociated from P-TEFb as early as 15–30 min after treatment, long before any signs of apoptosis appeared. Thus, stress signals such as ultraviolet irradiation and actinomycin D can cause fast and efficient 7SK dissociation from P-TEFb, which explains their positive effects on HIV-1 transcription and Pol II phosphorylation.

The test system of data set [4] is CDK9/cyclin T1 kinase. Kind of data set: CDK9-Flag kinase reaction with purified RNA Pol II as substrate. The conditions noted are these: affinity-purified CDK9-Flag; degradation of associated 7SK. The format is biochemical, human. On the procedure: 7SK could inhibit the activity of P-TEFb by suppressing the kinase activity of CDK9/cyclin T1. Affinity-purified CDK9-Flag and its associated factors were divided into two halves, incubated respectively with RNase A and DNase I, and tested in kinase reactions containing purified RNA Pol II as a substrate (9). […] This increase was significant given that only about 50% of the purified CDK9-Flag/cyclin T1 was associated with 7SK. […] To analyse more specifically the activity of P-TEFb bound to 7SK, this complex was affinity purified from HeLa nuclear extract using the 7SK antisense 2′-OMe RNA beads. Eluted with a displacement deoxyoligonucleotide (15), the P-TEFb bound to 7SK was divided into three equal portions, incubated respectively with RNase A, DNase I or buffer alone, and analysed in kinase reactions.

Starred links: 1 amine or outer side, 2 acyl side, 3 side chain; linkers in the order of their positions; H or OH if unused. Positions of bridges follow the written chain, without caps; N, C: chain ends. Non-standard residues stand in square brackets, D forms with d. Residues, ends and D or L forms follow the SMILES beside them. Chains are numbered I, II in the order given. Actinocin(9to1) = Cc1c2oc3c(C)ccc(C(=O)[*:1])c3nc-2c(C(=O)[*:2])c(N)c1=O; NMeV = CN[C@H](C(=O)O)C(C)C; Sar = CNCC(=O)O

T1 sequence (P50750 whole entry): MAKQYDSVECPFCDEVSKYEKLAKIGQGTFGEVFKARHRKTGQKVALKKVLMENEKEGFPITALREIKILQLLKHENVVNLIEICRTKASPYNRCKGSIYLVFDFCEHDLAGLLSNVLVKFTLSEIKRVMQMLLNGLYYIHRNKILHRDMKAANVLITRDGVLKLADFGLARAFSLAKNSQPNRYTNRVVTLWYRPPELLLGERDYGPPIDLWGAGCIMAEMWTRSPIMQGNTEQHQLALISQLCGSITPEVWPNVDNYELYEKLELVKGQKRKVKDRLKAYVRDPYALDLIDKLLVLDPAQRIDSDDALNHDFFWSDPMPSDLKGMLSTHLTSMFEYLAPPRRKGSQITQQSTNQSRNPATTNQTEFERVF
T1 sequence (O60563 whole entry partner): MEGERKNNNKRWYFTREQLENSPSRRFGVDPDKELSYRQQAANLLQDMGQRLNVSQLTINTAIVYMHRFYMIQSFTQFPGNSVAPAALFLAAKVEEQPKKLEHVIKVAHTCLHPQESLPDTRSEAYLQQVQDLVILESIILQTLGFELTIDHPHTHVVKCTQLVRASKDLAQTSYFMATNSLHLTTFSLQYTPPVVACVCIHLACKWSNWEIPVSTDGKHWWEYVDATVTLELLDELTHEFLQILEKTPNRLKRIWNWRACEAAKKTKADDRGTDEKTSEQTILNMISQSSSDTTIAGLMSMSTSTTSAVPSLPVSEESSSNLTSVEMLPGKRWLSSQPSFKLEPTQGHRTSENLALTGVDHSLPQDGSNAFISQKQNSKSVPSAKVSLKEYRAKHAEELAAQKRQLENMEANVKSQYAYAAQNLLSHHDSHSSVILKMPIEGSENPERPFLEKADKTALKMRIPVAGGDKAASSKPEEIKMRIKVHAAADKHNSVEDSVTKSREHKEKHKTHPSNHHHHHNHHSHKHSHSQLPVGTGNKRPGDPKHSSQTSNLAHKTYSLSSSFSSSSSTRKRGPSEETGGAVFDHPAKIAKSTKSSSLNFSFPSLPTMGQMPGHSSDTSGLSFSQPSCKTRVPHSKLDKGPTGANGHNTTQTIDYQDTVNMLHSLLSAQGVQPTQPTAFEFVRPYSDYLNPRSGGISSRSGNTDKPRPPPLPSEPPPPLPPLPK

As to `Cc1c2oc3c(C)ccc(C(=O)N[C@@H]4C(=O)N[C@H](C(C)C)C(=O)N5CCC[C@H]5C(=O)N(C)CC(=O)N(C)[C@@H](C(C)C)C(=O)O[C@@H]4C)c3nc-2c(C(=O)N[C@@H]2C(=O)N[C@H](C(C)C)C(=O)N3CCC[C@H]3C(=O)N(C)CC(=O)N(C)[C@@H](C(C)C)C(=O)O[C@@H]2C)c(N)c1=O` [actinomycin D] (I: T[dV]P[Sar][NMeV] / II: T[dV]P[Sar][NMeV]; ester I:1-I:C, II:1-II:C; linker I:N-II:N via Actinocin(9to1)), the 7SK/P-TEFb interaction result in data set [1] is recorded as “did not disrupt the 7SK/P-TEFb interaction”. Moreover, the HIV-1 transcription entry in data set [2] is given as “enhances HIV-1 transcription to levels similar to those obtained by Tat”. For the same molecule, the “amount of 7SK associated with affinity-purified CDK9-Flag” value in data set [3] is recorded as “significantly reduced the amount of 7SK associated with the affinity-purified CDK9-Flag”.

B1: RNase A: ribonuclease used to degrade the CDK9-Flag-associated 7SK (protein, UniProt P61823 27-150, looked up)
Ribonuclease pancreatic: KETAAAKFERQHMDSSTSAASSSNYCNQMMKSRNLTKDRCKPVNTFVHESLADVQAVCSQKNVACKNGQTNCYQSYSTMSITDCRETGSSKYPNCAYKTTQANKHIIVACEGNPYVPVHFDASV
As for B1, the “increase of kinase activity of CDK9-Flag (autophosphorylation and phosphorylation of Pol II)” value in data set [4] was 3-4 fold.

These data come from patent US7087433B2, “7SK RNA regulated transcription” (The Regents of the University of California, priority 2002, dated 2006).
